Target: MASP-2 CCP2-SP (Homo sapiens (Human), UniProt O00187)
Test: MASP-2 co-crystallization, X-ray crystallography and structure analysis (H-bonds, van der Waals contacts);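 for Ligand-pharmacophore element distance, pharmacophore element C2: distance from averaged pharmacophore element to bound ligand; missing value means element absent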;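 for Ligand-pharmacophore element distance, pharmacophore element C3: distance from averaged pharmacophore element to bound ligand; missing value means element absent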;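 for Ligand-pharmacophore element distance, pharmacophore element C4: distance from averaged pharmacophore element to bound ligand; missing value means element absent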;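 for Ligand-pharmacophore element distance, pharmacophore element C5: distance from averaged pharmacophore element to bound ligand; missing value means element absent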
Parameters: van der Waals contact distance, MASP-2 HIS 483 atom CD2 / van der Waals contact distance, MASP-2 HIS 483 atom NE2 / van der Waals contact distance, SER 654 C to compound atom / van der Waals contact distance, SER 654 O to compound atom / van der Waals contact distance, TRP 655 C to compound atom / van der Waals contact distance, MASP-2 GLY 528 atom CA / van der Waals contact distance TRP 655 atom CZ3 / van der Waals contact distance TRP 655 atom N / van der Waals contact distance TRP 655 atom CE3 / van der Waals contact distance GLY 656 atom C / van der Waals contact distance GLY 656 atom CA / van der Waals contact distance GLY 656 atom O / van der Waals contact distance, MASP-2 TYR 607 atom CD1 / van der Waals contact distance, MASP-2 PRO 606 atom O / d(C3,CA1) / d(CA1,N1)2 / d(H4,O1) / d(H4,O2) / d(O1,O2) / d(CA1,O2) / d(CA6,O1) / d(CA6,O2) / d(CA1,C5) / d(O2,H3) / d(N2,C2) / d(CA5,N2) / d(N2,C4) / d(N2,C6) / d(N2,CA3) / d(N2,O3) / d(O4,H2): unit not given beside the values
Conditions: for H-bond distance to MASP-2 GLY 656 atom N: GLY 656 N; for H-bond distance to MASP-2 GLY 656 atom O: GLY 656 O; for H-bond distance to MASP-2 SER 628 atom O: SER 628 O; for H-bond distance to MASP-2 SER 654 atom O: SER 654 O; for H-bond distance to MASP-2 SER 657 atom O: SER 657 O; for van der Waals contact distance, MASP-2 HIS 483 atom CD2 / van der Waals contact distance, MASP-2 HIS 483 atom NE2: Table A2-1; for Ligand-pharmacophore element distance, pharmacophore element C2 / Ligand-pharmacophore element distance, pharmacophore element C3 / Ligand-pharmacophore element distance, pharmacophore element C4 / Ligand-pharmacophore element distance, pharmacophore element C5 / Ligand-pharmacophore element distance, pharmacophore element C6 / Ligand-pharmacophore element distance, pharmacophore element C7 / Ligand-pharmacophore element distance, pharmacophore element CA1 / Ligand-pharmacophore element distance, pharmacophore element CA2 / Ligand-pharmacophore element distance, pharmacophore element CA3 / Ligand-pharmacophore element distance, pharmacophore element CA4 / Ligand-pharmacophore element distance, pharmacophore element CA5 / Ligand-pharmacophore element distance, pharmacophore element CA6: Table A4-1; for van der Waals contact distance TRP 655 atom CE3: MASP-2 TRP 655 CE3, compound atom in line below
In short: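 Inhibitor complexes were obtained by soaking crystals of E. coli-expressed human MASP-2 CCP2-SP constructs, then flash-cooling in liquid nitrogen. Structures solved by molecular replacement (1Q3X search model) from synchrotron diffraction; where several poses existed, only one was analyzed, and nonbonded contacts listed can include H-bonds.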

[1] = Table A5-1 pharmacophore: distance between elements, S2/S1 region
[2] = Table A5-2 pharmacophore distance, S3/S4 region
[3] = Table A7-1, between pharmacophore elements of the bound compound
[4] = Table A7-2, between pharmacophore elements of the bound compound
[5] = Table A8-6, nearest protein atom in cell to the left

Sequence of MASP-2 CCP2-SP (O00187 445-686): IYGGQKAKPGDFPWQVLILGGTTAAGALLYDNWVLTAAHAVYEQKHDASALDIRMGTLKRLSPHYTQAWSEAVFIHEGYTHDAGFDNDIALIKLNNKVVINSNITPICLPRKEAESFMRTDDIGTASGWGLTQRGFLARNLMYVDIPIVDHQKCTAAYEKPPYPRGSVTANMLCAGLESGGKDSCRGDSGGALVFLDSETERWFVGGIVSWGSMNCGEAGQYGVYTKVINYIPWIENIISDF
Sequence of MASP-2 CCP2-SP (O00187 364-432 partner): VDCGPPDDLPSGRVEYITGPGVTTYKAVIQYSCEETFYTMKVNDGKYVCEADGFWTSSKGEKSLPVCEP

## Cc1nc(N)ccc1CNC(=O)C(C)NC(=O)[C@H]1C[C@H](c2cccc(-c3ccccc3)c2)CN1 (stereo in doubt) [compound 1360, (2R,4R)-4-([1,1′-Biphenyl]-3-yl)-N—((R)-1-(((6-amino-2-methylpyridin-3-yl)methyl)amino)-1-oxopropan-2-yl)pyrrolidine-2-carboxamide]
Table A1 (H-Bonds), ASP 627 OD2
  H-bond distance to MASP-2 ASP 627 atom OD2: 3.15
Table A1 (H-Bonds)
  H-bond distance to MASP-2 GLY 656 atom N: 3.21
  H-bond distance to MASP-2 GLY 656 atom O: 2.9
  H-bond distance to MASP-2 SER 628 atom O: 3.18
  H-bond distance to MASP-2 SER 654 atom O: 3.04
  H-bond distance to MASP-2 SER 657 atom O: 2.96
  van der Waals contact distance, MASP-2 HIS 483 atom CD2: 3.76
  van der Waals contact distance, MASP-2 HIS 483 atom NE2: 3.69
  Ligand-pharmacophore element distance, pharmacophore element C2: 0
  Ligand-pharmacophore element distance, pharmacophore element C3: 0.11
  Ligand-pharmacophore element distance, pharmacophore element C4: 0
  Ligand-pharmacophore element distance, pharmacophore element C5: 0
  Ligand-pharmacophore element distance, pharmacophore element C6: 0
  Ligand-pharmacophore element distance, pharmacophore element C7: 0
  Ligand-pharmacophore element distance, pharmacophore element CA1: 0.57
  Ligand-pharmacophore element distance, pharmacophore element CA2: 2.35
  Ligand-pharmacophore element distance, pharmacophore element CA3: 0
  Ligand-pharmacophore element distance, pharmacophore element CA4: 0
  Ligand-pharmacophore element distance, pharmacophore element CA5: 1.11
  Ligand-pharmacophore element distance, pharmacophore element CA6: 0
Table A2-3
  van der Waals contact distance, MASP-2 PHE 529 atom CE1: 3.78
Table A2-7: SER 628 (CB, O, OG)
  van der Waals contact distance, MASP-2 amino acid atom to compound atom: 3.61
Table A2-12
  van der Waals contact distance, TRP 655 CA to compound atom: 3.44
[1]
  d(C3,CA1): 2.85
  d(CA1,N1)2: 1.36
  d(CA1,O1): 4.35
  d(CA1,O2): 3.85
  d(H4,O1): 4.38
  d(H4,O2): 3.80
  d(O1,O2): 3.32
[2]
  d(CA5,N2): 5.07
  d(N2,CA2): 8.32
  d(O2,H3): 4.32
  d(O2,N2): 2.66
Table A6-1 pharmacophore angle
  a(C3, CA1, O1): 150.18
  a(CA1, O1, O2): 105.67
  a(O1, O2, H4): 132.69
Table A6-1 pharmacophore angle, Methyl-amino-pyridine compounds
  a(N1, CA1, O1) b): 174.23
Table A6-2 pharmacophore angle
  a(O1, O2, H3): 147.57
  a(O1, O2, N2): 138.89
  a(O2, N2, CA2): 162.09
[3]
  Pharmacophore torsion angle a(C3, CA1, O1, H4): 24.01
  Pharmacophore torsion angle a(H4, O1, O2, H3): 51.00
  Pharmacophore torsion angle a(H4, O1, O2, N2): 138.89
  Pharmacophore torsion angle a(N1, CA1, O1, H4): 3.34
  Pharmacophore torsion angle a(O1, H4, O2, CA1): −83.81
[4]
  Pharmacophore torsion angle a(O1, O2, N2, CA2): 130.24
  Pharmacophore torsion angle a(O1, O2, N2, CA5): 129.35

## C[C@H](NC(=O)[C@@H](CCc1ccccc1)NCCCc1ccc(O)cc1)C(=O)NCc1ccc(C(=N)N)cc1 [compound 1145]
Table A1 (H-Bonds)
  H-bond distance to MASP-2 GLY 656 atom N: 3.09
  H-bond distance to MASP-2 GLY 656 atom O: 2.58
  H-bond distance to MASP-2 SER 628 atom O: 2.84
  H-bond distance to MASP-2 SER 654 atom O: 2.84
  H-bond distance to MASP-2 SER 657 atom O: 2.81
  van der Waals contact distance, MASP-2 HIS 483 atom CD2: 3.75
Table A2-3
  van der Waals contact distance, MASP-2 PHE 529 atom CD1: 3.54
Table A2-4
  van der Waals contact distance, MASP-2 TYR 607 atom CD2: 3.89
Table A2-11
  van der Waals contact distance, VAL 653 CG1 to compound atom: 3.9
Table A2-13
  van der Waals contact distance TRP 655 atom CE3: 3.49
Table A2-13, MASP-2 TRP 655 N
  van der Waals contact distance TRP 655 atom N: 3.79
Table A2 section before Table A2-8
  van der Waals contact distance, MASP-2 amino acid atom to compound atom: 3.85

## Cc1nc(N)ccc1CNC(=O)[C@H](C)NC(=O)[C@H]1C[C@H](Cc2cccc(Cl)c2)CN1 [compound 1328, (2R,4S)—N—((S)-1-(((6-amino-2-methylpyridin-3-yl)methyl)amino)-1-oxopropan-2-yl)-4-(3-chlorobenzyl)pyrrolidine-2-carboxamide]
Table A1 (H-Bonds)
  H-bond distance to MASP-2 GLY 656 atom N: 3.33
  H-bond distance to MASP-2 GLY 656 atom O: 2.82
  H-bond distance to MASP-2 SER 628 atom O: 3.06
  H-bond distance to MASP-2 SER 654 atom O: 2.67
  H-bond distance to MASP-2 SER 657 atom O: 2.44
  van der Waals contact distance, MASP-2 HIS 483 atom CD2: 3.79
  van der Waals contact distance, MASP-2 HIS 483 atom NE2: 3.73
Table A2-3
  van der Waals contact distance, MASP-2 PHE 529 atom CD1: 3.78
Table A2-11
  van der Waals contact distance, SER 654 C to compound atom: 3.62
  van der Waals contact distance, VAL 653 CG1 to compound atom: 3.23
Table A2-13
  van der Waals contact distance TRP 655 atom CE3: 3.49
Table A2-13, MASP-2 TRP 655 CZ3
  van der Waals contact distance TRP 655 atom CZ3: 3.53

## C[C@H](NC(=O)[C@H]1C[C@@H](c2ccccc2)CCN1)C(=O)NCc1cc(Cl)ccc1O.Cl [1078_8]
  Ligand-pharmacophore element distance, pharmacophore element C2: 0.85
  Ligand-pharmacophore element distance, pharmacophore element C3: 0
  Ligand-pharmacophore element distance, pharmacophore element C4: 0
  Ligand-pharmacophore element distance, pharmacophore element C5: 0.78
  Ligand-pharmacophore element distance, pharmacophore element C6: 0
  Ligand-pharmacophore element distance, pharmacophore element C7: 0
  Ligand-pharmacophore element distance, pharmacophore element CA1: 1.67
  Ligand-pharmacophore element distance, pharmacophore element CA2: 0.92
  Ligand-pharmacophore element distance, pharmacophore element CA3: 0
  Ligand-pharmacophore element distance, pharmacophore element CA4: 0
  Ligand-pharmacophore element distance, pharmacophore element CA5: 0
  Ligand-pharmacophore element distance, pharmacophore element CA6: 0
[1]
  d(CA1,C5): 3.10
  d(CA1,O1): 4.33
  d(CA1,O2): 4.59
  d(CA1,O4): 2.75
  d(H4,O1): 2.28
  d(H4,O2): 2.53
  d(O1,O2): 2.73
  d(O4,H2): 0.98
[2]
  d(N2,C2): 1.44
  d(N2,CA2): 5.66
  d(O2,H3): 2.69
  d(O2,N2): 2.85
Table A6-1 pharmacophore angle
  a(C5, CA1, O1): 159.05
  a(CA1, O1, O2): 112.99
  a(CA1, O4, H2): 125.48
  a(O1, CA1, O4): 73.28
  a(O1, O2, H4): 111.09
Table A6-2 pharmacophore angle
  a(O1, O2, H3): 140.66
  a(O1, O2, N2): 145.13
  a(O2, N2, C2): 125.44
  a(O2, N2, CA2): 153.81
[3]
  Pharmacophore torsion angle a(C5, CA1, O1, H4): 5.11
  Pharmacophore torsion angle a(H4, O1, O2, H3): −134.33
  Pharmacophore torsion angle a(H4, O1, O2, N2): −122.87
  Pharmacophore torsion angle a(O1, H4, O2, CA1): −58.50
  Pharmacophore torsion angle a(O1, O2, N2, C2): 135.84
[4]
  Pharmacophore torsion angle a(O1, O2, N2, CA2): 143.43

## CC(NC(=O)C(CCc1ccccc1)NCc1ccc(C(=O)N2CCOCC2)cc1)C(=O)NCc1ccc(C(=N)N)cc1.Cl.Cl (stereo not drawn) [1153_A]
  Ligand-pharmacophore element distance, pharmacophore element C2: 8.69
  Ligand-pharmacophore element distance, pharmacophore element C3: 0
  Ligand-pharmacophore element distance, pharmacophore element C4: 0
  Ligand-pharmacophore element distance, pharmacophore element C5: 0
  Ligand-pharmacophore element distance, pharmacophore element C6: 0
  Ligand-pharmacophore element distance, pharmacophore element C7: 0
  Ligand-pharmacophore element distance, pharmacophore element CA1: 0.43
  Ligand-pharmacophore element distance, pharmacophore element CA2: 0.34
  Ligand-pharmacophore element distance, pharmacophore element CA3: 4.19
  Ligand-pharmacophore element distance, pharmacophore element CA4: 0
  Ligand-pharmacophore element distance, pharmacophore element CA5: 0
  Ligand-pharmacophore element distance, pharmacophore element CA6: 0
[1]
  d(CA1,N1): 3.54
  d(CA1,O1): 5.79
  d(CA1,O2): 4.38
  d(H4,O1): 6.25
  d(H4,O2): 4.36
  d(O1,O2): 4.62
[2]
  d(N2,C2): 8.34
  d(N2,CA2): 6.18
  d(N2,CA3): 3.78
  d(N2,O3): 7.78
  d(O2,H3): 2.71
  d(O2,N2): 2.88
Table A6-1 pharmacophore angle
  a(CA1, O1, O2): 99.83
  a(O1, O2, H4): 132.39
Table A6-1 pharmacophore angle, all compounds with protonatable center N1 except Methyl-amino-pyridine
  A(N1, CA1, O1) a): 174.13
Table A6-2 pharmacophore angle
  a(O1, O2, H3): 138.79
  a(O1, O2, N2): 132.96
  a(O2, N2, C2): 168.69
  a(O2, N2, CA2): 152.46
  a(O2, N2, CA3): 157.4
  a(O2, N2, O3): 167.7
[3]
  Pharmacophore torsion angle a(H4, O1, O2, H3): 86.11
  Pharmacophore torsion angle a(H4, O1, O2, N2): 97.90
  Pharmacophore torsion angle a(N1, CA1, O2, H4): −11.60
  Pharmacophore torsion angle a(O1, H4, O2, CA1): 15.20
  Pharmacophore torsion angle a(O1, O2, N2, C2): 30.40
[4]
  Pharmacophore torsion angle a(O1, O2, N2, CA2): 116.41
  Pharmacophore torsion angle a(O1, O2, N2, CA3): 24.87
  Pharmacophore torsion angle a(O1, O2, N2, O3): 43.95
Table A8-6, 6th residue column, nearest protein atom in cell to the left
  Pharmacophore protein distance to MET_658 (first MET_658 column): 2.53
Table A8-6, 9th residue column, nearest protein atom in cell to the left
  Pharmacophore protein distance to MET_658 (second MET_658 column): 3.26
[5]
  Pharmacophore protein distance to GLY_528: 3.41
  Pharmacophore protein distance to PHE_529: 3.23
  Pharmacophore protein distance to PRO_608: 4.41
  Pharmacophore protein distance to SER_611: 2.46
Table A8-6, pharmacophore elements C6, CA3, O3, H1, nearest protein atom in cell to the left
  Pharmacophore protein distance to TRP_655: 3.42
